Laboratory results: patent US20060058346A1, “Novel enantiomers of etrahydroisoquinoline derivatives and theirpharmaceutically acceptable salts, their preparations and pharmaceutical compositions” (priority 2002, published 2006)
Where two headings read alike, the source gives them in different places.

Assays:
[1] = system: RAW 264.7 macrophage cells; assay: Nitric oxide production in macrophage cell stimulated by LPS (Griess); assay type: cell-based; conditions: LPS 1 μg/ml
Description: RAW 264.7 macrophage cells were plated on 100 mm culture dishes at a density of 1-2×10^5 cells. Thereafter, the said macrophage cell was incubated in DMEM medium containing 10% fetal calf serum (heat-inactivated), 100 U/ml penicillin, and […] streptomycin in a CO2 incubator. The said macrophage cell was incubated therein confluently. The said incubated macrophage cells were transferred to serum-free DMEM medium, and further incubated therein for about 24 hours. Thereafter, macrophage cells were stimulated with LPS (1 μg/ml) for about 8 hours. (In this progress, experimental group was divided into two groups, group to which the compound was administered, and group to which the compound was not.) Then, nitrite quantification was achieved by performing calorimetric reaction for produced nitrite with Griess reagent and then measuring absorbance at 550 nm, while using NaNO2 as a standard.

[2] = system: right auricle muscle; assay: Heart rates (beats) of right auricle muscle excised from rats; design: species or system rat; conditions: vehicle control:100%
Description: (§1) Immediately after Sprague-Dawley rats (female or male) were anaesthetized with pentobarbital sodium (50 mg/kg, i.m.), the thorax was opened to excise the heart. The heart was submerged in Krebs solution, and left auricle muscle and right auricle muscle were then isolated. The left auricle muscle was placed in an organ bath for recording of contractile force, and applied with electrical field stimulation (voltage 10% higher than threshold voltage, 1 Hz frequency, 5 ms duration). In the case of right auricle muscle, which contracts spontaneously, the number of continuous beats was recorded. In this experiment, to measure contractile fore of the two auricle muscles, the organ bath was warmed to 37° C., and as a physiological solution, Krebs solution (119.8 mM NaCl, 4.6 mM KCl, 2.5 mM CaCl2, 1.2 mM MgCl2, 25 mM NaHCO3, 1.2 mM KH2PO4, 10 mM glucose, 1 mM EDTA, pH 7.4) was used. The Krebs solution (pH 7.4) was continuously saturated with a gas mixture of 95% O2 and 5% CO2. The auricle muscle was under a tension of 1 g, and Krebs solution was exchanged with fresh solution at intervals of 20 minutes while equilibrium was maintained during a recording period of 60 minutes.

[3] = system: Rat Thoracic Aortas; assay: Relaxation of rat thoracic aortas contracted by phenylephrine; conditions: 0.1 μM phenylephrine contraction
Description: Experimental group was divided into two groups, group containing endothelial cells of blood vessel and group not containing. Blood vessel of thoracic aortas was induced to contract by treatment with 0.1 μM of phenyleprine under tension of 1 g. Upon arriving at equilibrium, the enantiomers were added to an organ bath in a cumulative manner. Relaxation of thoracic aortas was recorded using a physiograph (Grass P7), calculating their response to the compounds with consideration of their added amount.

[4] = system: LPS-injected rat; assay: Serum/plasma level of nitrate/nitrite (NOx) in LPS-injected rat; assay type: in vivo; conditions: 10 mg/kg compound; LPS 20 mg/kg
Description: The rats were divided into three groups; (1) LPS-injected group (LPS was administered to abdominal cavity in an amount of 20 mg/kg), (2) enantiomer-injected group (LPS+the compounds represented by formula 3 to 8 was administered to abdominal cavity) or (3) saline solution-injected group. After administration of LPS, the rats were anaesthetized with pentobarbital. The blood was collected from rats by using heart punching. The plasma level of nitrite was measured by using the nitrate reductase derived from Aspergillus species, where the nitrate was reduced by enzyme. Particularly, the plasma was diluted with distilled water in a ratio of 1:10. Analysis buffering solution (KH2PO4 50 Mm, NADPH 0.6 Mm, FAD 5 Mm and nitrate reductase 10 U/ml, Ph 5.5) was added to the said plasma. Thereafter, the reaction was accomplished at 37° C. for 30 min. The plasma level of nitrite was measured by using sodium nitrite as a standard, and Griess solution. Standard curve to nitrite was calculated from the result derived from incubation in analysis buffering solution.

[5] = system: Sprague-Dawley rats; assay: Acute toxicity in rat (LD50); assay type: in vivo; conditions: for LD50, Intraperitioneal injection: single intraperitoneal injection; for LD50, Intravenous injection: single intravenous injection
Description: (§2) Sprague-Dawley rats (six weeks) were used as test sample. Each group was comprised of two rats. […] The said emulsion was administered to two rats one times using intravenous injection and intraperitoneal injection.

[6] = system: left auricle muscle; assay: Contractile force of left auricle muscle excised from rats; design: species or system rat; conditions: vehicle control:100%
Description: as §1

[7] = system: rat PRP; conditions: epinephrine; from Yun-Choi et al. 2001; read-out: IC50 platelet aggregation, epinephrine, racemic mixture; cited from earlier work
[8] = system: LPS-injected rat; conditions: from Kang et al. 1999; cited from earlier work
[9] = Acute toxicity in rat (LD50); assay type: in vivo; conditions: Sprague-Dawley, in vivo
Description: as §2

[10] = group containing endothelial cells, read-out: IC50 (E+), concentration showing relaxation response of 50%
[11] = group not containing endothelial cells, read-out: IC50 (E−), concentration showing relaxation response of 50%

Structure (SMILES)	NO production by LPS in macrophage cell ([1]; compound 10 μM)	NO production by LPS in macrophage cell ([1]; compound 50 μM)	NO production by LPS in macrophage cell ([1]; compound 100 μM)	Heart Rates of Auricle Muscles ([2]; 1 × 10^−4 M)	Heart Rates of Auricle Muscles ([2]; 1 × 10^−5 M)	Heart Rates of Auricle Muscles ([2]; 1 × 10^−6 M)	Heart Rates of Auricle Muscles ([2]; 1 × 10^−7 M)	Heart Rates of Auricle Muscles ([2]; 3 × 10^−5 M)	Heart Rates of Auricle Muscles ([2]; 3 × 10^−6 M)	Heart Rates of Auricle Muscles ([2]; 3 × 10^−7 M)	IC50 [3, 10]	IC50 [3, 11]	Contractile Force of Auricle Muscles ([6]; 1 × 10^−4 M)	Contractile Force of Auricle Muscles ([6]; 1 × 10^−5 M)	Contractile Force of Auricle Muscles ([6]; 1 × 10^−6 M)	Contractile Force of Auricle Muscles ([6]; 1 × 10^−7 M)	Contractile Force of Auricle Muscles ([6]; 3 × 10^−5 M)	Contractile Force of Auricle Muscles ([6]; 3 × 10^−6 M)	Contractile Force of Auricle Muscles ([6]; 3 × 10^−7 M)	IC50 [7]	further results
Oc1ccc(CC2NCCc3cc(O)c(O)cc32)cc1 (racemic) [Racemic mixture of formula 3 and formula 4, higenamine, reference compound]	21.3 µM	14.3 µM	15.2 µM	200%	140%	115%	110%	160%	125%	110%	9.81 µM	5.61 µM	300%	260%	180%	115%	280%	240%	130%	7.2 µM	plasma level of NOx [4]: 75 ± 4 µM; LD50, Intraperitioneal injection [5]: 280 mg/kg; LD50, Intravenous injection [5]: 98 mg/kg; survival, racemic mixture [8]: 80%
Oc1cc2c(cc1O)C(Cc1cccc3ccccc13)NCC2 (racemic) [Racemic mixture of formula 5 and formula 6, 1-α-naphthylmethyl-6,7-dihydroxy-1,2,3,4-tetrahydroisoquioline, reference compound]	31 µM	28 µM	26 µM	135%	130%	120%	115%	130%	120%	115%	0.105 µM	6.41 µM	490%	400%	310%	140%	430%	360%	200%	1.7 µM	LD50, Intraperitioneal injection [5]: 242 mg/kg; LD50, Intravenous injection [5]: 92 mg/kg; survival, racemic mixture [8]: 90%
Oc1cc2c(cc1O)C(Cc1ccc3ccccc3c1)NCC2 (racemic) [Racemic mixture of formula 7 and formula 8, 1-β-naphthylmethyl-6,7-dihydroxy-1,2,3,4-tetrahydroisoquinoline, reference compound]	45 µM	40 µM	39 µM	140%	140%	125%	110%	140%	135%	120%			310%	250%	180%	110%	270%	220%	140%	6.3 µM	IC50 ([3]; Rattus norvegicus, Endothelial cell, group containing endothelial cells, read-out: IC50 (E+), concentration showing relaxation response of 50%): 8.75 µM; IC50 ([3]; Rattus norvegicus, Endothelial cell, group not containing endothelial cells, read-out: IC50 (E−), concentration showing relaxation response of 50%): 51.5 µM; LD50 ([9]; ip, single intraperitoneal injection, read-out: LD50, Intraperitioneal injection): 220 mg/kg; LD50 ([9]; single intravenous injection, read-out: LD50, Intravenous injection): 84 mg/kg
